From patent US20250215101A1, “DR5 Agonist and PLK1 Inhibitor or CDK Inhibitor Combination Therapy” (Inhibrx Biosciences, Inc., priority 2022, published 2025)
Where two headings read alike, the source gives them in different places.

Columns and labels:
Type in all cases: cell-based
HT-29 = assay: Cell viability (CellTiter-Glo) cytotoxicity assay, INBRX-109 x onvansertib matrix, 48 h; details: for Max Cytotox at 200 nM: HT-29; for EC50: Homo sapiens, HT-29, HT-29
Procedure: (§1) Monolayer cultures of each cell line were harvested for compound screening as detailed below.
(§2) Onvansertib: A 10 mg stock of onvansertib was purchased from Selleck Chemicals and was resuspended to 10 mM in DMSO. This was then aliquoted and stored at −80° C. Aliquots were thawed immediately prior to dilution and use in the assay. A 500× master plate of serial dilutions (6-point 5-fold dilutions in 100% DMSO starting at 500 μM, plus a DMSO only control) was prepared and mixed gently with a pipette. To generate a 5× working dilution plate of onvansertib, a 1:100 dilution was performed from the 500× plate into complete media (EMEM).
(§3) Also on day 2, test and control articles were added.
(§4) On day 4, viability measurements were taken. […] Data was graphed in GraphPad Prism 9.

LS174T = assay: as above; details: for EC50: Homo sapiens
Procedure: as §1, §2, §3, §4

LS411N = assay: as above; details: for EC50: Homo sapiens, LS-411N
Procedure: as §1, §2, §3, §4

SW1463 = assay: as above; details: for EC50: Homo sapiens, SW1463, SW1463; for Max Cytotox at 200 nM: SW1463
Procedure: as §1, §2, §3, §4

SW620 = assay: as above; details: for EC50: Homo sapiens, SW-620, SW620; for Max Cytotox at 200 nM: SW620
Procedure: as §1, §2, §3, §4

SW837 = assay: as above; details: for EC50: Homo sapiens, SW837, SW837; for Max Cytotox at 200 nM: SW837
Procedure: as §1, §2, §3, §4

NCI-H716 = assay: Cytotoxicity assay, colorectal cancer cell line panel, onvansertib +/- 1 nM INBRX-109; details: for EC50: Homo sapiens, NCI-H716, NCI-H716; for Max Cytotox at 600 nM: NCI-H716
Procedure: as §1, §3, §4
(§5) The results for a panel of colorectal cancer cell lines are shown in Table 3 and FIGS. 4-6, and the results for a panel of pancreatic cell lines are shown in Table 4 and FIGS. 7 and 8.

SW-1463 = assay: as above; details: for EC50: Homo sapiens, SW1463, SW-1463; for Max Cytotox at 600 nM: SW-1463
Procedure: as §1, §3, §4, §5

AsPC-1 = assay: Cytotoxicity assay, pancreatic cell line panel, onvansertib +/- 1 nM INBRX-109; details: for Max Cytotox at 600 nM: AsPC-1; for EC50: Homo sapiens, ASPC1, AsPC-1
Procedure: as §1, §3, §4, §5

BxPC-3 = assay: as above; details: for Max Cytotox at 600 nM: BxPC-3; for EC50: Homo sapiens, BXPC-3, BxPC-3
Procedure: as §1, §3, §4, §5

CFPAC-1 = assay: as above; details: for Max Cytotox at 600 nM: CFPAC-1; for EC50: Homo sapiens, CFPAC-1, CFPAC-1
Procedure: as §1, §3, §4, §5

Capan-1 = assay: as above; details: for Max Cytotox at 600 nM: Capan-1; for EC50: Homo sapiens, CAPAN-1, Capan-1
Procedure: as §1, §3, §4, §5

Capan-2 = assay: as above; details: Capan-2
Procedure: as §1, §3, §4, §5

CN1CCN(c2ccc(OC(F)(F)F)c(Nc3ncc4c(n3)-c3c(c(C(N)=O)nn3CCO)CC4)c2)CC1 [Onvansertib]
Max Cytotox at 200 nM (HT-29; onvansertib + 1 nM INBRX-109): 94.63% | Max Cytotox at 200 nM (HT-29; onvansertib only): 5.54% | EC50 (HT-29; onvansertib + 1 nM INBRX-109): 0.0214 µM | EC50 (HT-29; onvansertib only): ~0.0023 µM | EC50 (LS174T; onvansertib + 1 nM INBRX-109): ~0.0547 µM | EC50 (LS174T; onvansertib only): ~0.197 µM | Max Cytotox at 200 nM (LS174T; onvansertib + 1 nM INBRX-109): 79.32% | Max Cytotox at 200 nM (LS174T; onvansertib only): 16.93% | EC50 (LS411N; onvansertib + 1 nM INBRX-109, read-out: EC50): ~0.0103 µM | EC50 (LS411N; onvansertib only, read-out: EC50): ~4150 µM | Max Cytotox at 200 nM (LS411N; onvansertib + 1 nM INBRX-109): 84.45% | Max Cytotox at 200 nM (LS411N; onvansertib only): 12.35% | EC50 (SW1463; onvansertib + 1 nM INBRX-109): ~0.0382 µM | EC50 (SW1463; onvansertib only): 0.124 µM | Max Cytotox at 200 nM (SW1463; onvansertib + 1 nM INBRX-109): 74.39% | Max Cytotox at 200 nM (SW1463; onvansertib only): 25.79% | EC50 (SW620; onvansertib + 1 nM INBRX-109): 0.0305 µM | EC50 (SW620; onvansertib only): 0.0313 µM | Max Cytotox at 200 nM (SW620; onvansertib + 1 nM INBRX-109): 87.53% | Max Cytotox at 200 nM (SW620; onvansertib only): 51.37% | EC50 (SW837; onvansertib + 1 nM INBRX-109): ~0.0432 µM | EC50 (SW837; onvansertib only): 27.2 µM | Max Cytotox at 200 nM (SW837; onvansertib + 1 nM INBRX-109): 80.64% | Max Cytotox at 200 nM (SW837; onvansertib only): 27.17% | EC50 (NCI-H716; onvansertib + 1 nM INBRX-109): 0.0836 µM | EC50 (NCI-H716; onvansertib only): 0.0813 µM | Max Cytotox at 600 nM (NCI-H716; onvansertib + 1 nM INBRX-109): 51.2% | Max Cytotox at 600 nM (NCI-H716; onvansertib only): 34.8% | EC50 (SW-1463; onvansertib + 1 nM INBRX-109): 0.098 µM | EC50 (SW-1463; onvansertib only): 0.201 µM | Max Cytotox at 600 nM (SW-1463; onvansertib + 1 nM INBRX-109): 64.2% | Max Cytotox at 600 nM (SW-1463; onvansertib only): 21.0% | Max Cytotox at 600 nM (AsPC-1; onvansertib + 1 nM INBRX-109): 60.0% | Max Cytotox at 600 nM (AsPC-1; onvansertib only): 19.9% | EC50 (AsPC-1; onvansertib + 1 nM INBRX-109): 0.23 µM | EC50 (AsPC-1; onvansertib only): 0.444 µM | Max Cytotox at 600 nM (BxPC-3; onvansertib + 1 nM INBRX-109): 91.8% | Max Cytotox at 600 nM (BxPC-3; onvansertib only): 70.1% | EC50 (BxPC-3; onvansertib + 1 nM INBRX-109): 0.119 µM | EC50 (BxPC-3; onvansertib only): 0.139 µM | Max Cytotox at 600 nM (CFPAC-1; onvansertib + 1 nM INBRX-109): 86.4% | Max Cytotox at 600 nM (CFPAC-1; onvansertib only): 45.3% | EC50 (CFPAC-1; onvansertib + 1 nM INBRX-109): 0.154 µM | EC50 (CFPAC-1; onvansertib only): 0.135 µM | Max Cytotox at 600 nM (Capan-1; onvansertib + 1 nM INBRX-109): 94.3% | Max Cytotox at 600 nM (Capan-1; onvansertib only): 27.8% | EC50 (Capan-1; onvansertib + 1 nM INBRX-109): 0.079 µM | EC50 (Capan-1; onvansertib only): 0.186 µM | Max Cytotox at 600 nM (Capan-2; onvansertib + 1 nM INBRX-109): 46.2% | Max Cytotox at 600 nM (Capan-2; onvansertib only): 3.9%
